One series deals with human GPR40 receptor (Homo sapiens, UniProt O14842). The series can be described thus: IP1 accumulation measurements using the IPOne assay system (1321N1 cells stably expressing human GPR40 receptor). Type of series: cell-based. As to conditions: 1321N1 cells expressing human GPR40, 1 h stimulation at 37° C. In short, it runs like this:
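Cells were stimulated with compounds for 1 h at 37 °C in HEPES-buffered stimulation buffer containing 50 mM LiCl, pH 7.4. IP1 was then detected by HTRF (IP1-d2/anti-IP1 cryptate, 1 h at room temperature), and 665/615 ratios were converted using an IP1 reference curve, with pEC50 obtained by variable-slope sigmoidal fitting.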

In series [1] the target is T1, cytochrome P450 2C9-isoenzyme (Homo sapiens, UniProt P11712).
T1 construct: from tissue; host or cells: human liver microsomes
T1 sequence (P11712 whole entry): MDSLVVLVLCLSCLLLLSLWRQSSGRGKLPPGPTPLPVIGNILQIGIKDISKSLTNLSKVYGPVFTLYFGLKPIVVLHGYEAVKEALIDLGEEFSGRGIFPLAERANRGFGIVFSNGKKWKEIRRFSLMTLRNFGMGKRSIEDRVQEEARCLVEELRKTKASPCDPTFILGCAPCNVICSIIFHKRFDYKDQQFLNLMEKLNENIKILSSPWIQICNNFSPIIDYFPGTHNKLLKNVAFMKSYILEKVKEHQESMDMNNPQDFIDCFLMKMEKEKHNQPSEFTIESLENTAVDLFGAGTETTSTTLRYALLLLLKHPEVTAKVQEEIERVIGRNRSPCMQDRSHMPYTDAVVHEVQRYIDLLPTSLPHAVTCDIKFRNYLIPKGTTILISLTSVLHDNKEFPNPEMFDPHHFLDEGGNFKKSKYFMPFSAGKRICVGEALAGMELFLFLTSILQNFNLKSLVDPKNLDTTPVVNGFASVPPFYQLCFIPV
Nature of the series: Inhibition of CYP-2C9 (hydroxylation of diclofenac, human liver microsomes). Type of series: in vitro ADME. As to conditions: CYP-2C9, human liver microsomes, diclofenac 10 μM, 37° C. Put shortly: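 Human liver microsomes (0.1 mg/mL) in 0.1 M TRIS, 5 mM MgCl2, 10 μM diclofenac, 37 °C, duplicate five-point compound series; started with 1 mM NADPH, quenched by cooling and acetonitrile. Hydroxydiclofenac quantified by LC-MS/MS against 13C6 internal standard; IC50 by least-squares fit with slope and background terms.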
For orientation: Microsomes from liver hold many membrane-bound enzymes, among them those of drug oxidation.

A short description of series [2]: Aqueous solubility in buffer vs acetonitrile/water (1/1), LC-UV. As to conditions: kinetic from dmso stock, buffer pH 2.2, 24 h shaking, 2.5% DMSO. Type of series: physicochemical. In short, it runs like this:
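Aliquots of 10 mM DMSO stock diluted into buffer or acetonitrile/water (1/1), shaken 24 h, filtered and quantified by LC-UV; buffer amount compared with acetonitrile/water amount. Range 0.001-0.125 mg/mL at 2.5% DMSO; ">" marks over 90% dissolved.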

For series [3], the target named is T2, cytochrome P450 2C8-isoenzyme (Homo sapiens, UniProt P10632).
T2 construct: from tissue; host or cells: human liver microsomes
T2 sequence (P10632 1-490): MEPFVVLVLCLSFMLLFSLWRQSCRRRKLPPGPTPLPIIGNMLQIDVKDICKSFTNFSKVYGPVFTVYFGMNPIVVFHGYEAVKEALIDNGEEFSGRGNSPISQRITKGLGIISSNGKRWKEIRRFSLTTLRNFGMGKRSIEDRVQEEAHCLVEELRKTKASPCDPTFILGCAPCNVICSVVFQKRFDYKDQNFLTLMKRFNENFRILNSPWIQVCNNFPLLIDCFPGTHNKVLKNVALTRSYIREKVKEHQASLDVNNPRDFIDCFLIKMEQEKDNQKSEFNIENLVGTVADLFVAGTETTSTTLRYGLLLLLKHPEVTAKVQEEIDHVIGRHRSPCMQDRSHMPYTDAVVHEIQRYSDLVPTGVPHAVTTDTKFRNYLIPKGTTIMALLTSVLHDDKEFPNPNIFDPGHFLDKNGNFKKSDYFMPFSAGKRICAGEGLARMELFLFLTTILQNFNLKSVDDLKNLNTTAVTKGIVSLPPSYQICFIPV
Nature of the series: Inhibition of CYP-2C8 (deethylation of amodiaquine, human liver microsomes). Type of series: in vitro ADME. As to conditions: CYP-2C8, human liver microsomes, amodiaquine 1 μM, 37° C. Put shortly: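 Amodiaquine deethylation (1 μM substrate) was measured at 37 °C in human liver microsomes (0.05 mg/mL), 0.1 M Tris, 5 mM MgCl2, and started with 1 mM NADPH. Desethylamodiaquine was quantified by LC-MS/MS against a d5 internal standard. IC50 came from five concentrations, typically top 10–50 μM with 1:4 dilutions, fitted by least squares to a slope-and-background model.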

Series [4] is described as follows: Chemical stability: degradation kinetics in acidic aqueous media (pH ca. 1.2), HPLC recovery. Type of series: physicochemical. As to conditions: pH value of ca. 1.2 (acetonitrile/0.1 M aqueous HCl 2:3), 37° C. How it is done: Degradation kinetics is used to simulate chemical stability of compounds in the acidic part of the gastro intestinal tract. […] Their application as medical drugs to treat human diseases is therefore less restricted and troublesome.
The chemical stability of the compounds of the invention at pH value of ca. 1.2 is determined as follows:
Compound is dissolved in an HPLC vial either in a mixture of acetonitrile/0.1 M aqueous HCl (2:3; pH ca. 1.2) or in a mixture of acetonitrile/McIlvaine buffer pH 7.4 (2:3) to get a concentration of approximately 0.25 mg/ml. The vial was then transferred into an HPLC autosampler system and maintained at a temperature of 37° C. A first sample is taken and injected immediately into a standard HPLC system with a UV DAD detector. Further samples are injected after 2, 4, 6, 8 and 10 hours. Amount of degraded compound is measured by determining the recovery rate of compound [%] for each injection using an HPLC standard gradient method. Therefore the peak area of the main peak for the first injection (AUt0) is determined and set as 100%. Peak area of the main peak is determined also for the further injections (AUtn, n=2, 4, 6, 8, 10) and expressed as fraction of (AUt0)/(AUtn, n=2, 4, 6, 8, 10) [%].

Converted amounts (≈) assume the structure as drawn. Where only a bound is given, the exact number is not on record here.

Sequence of human GPR40 receptor (O14842 whole entry): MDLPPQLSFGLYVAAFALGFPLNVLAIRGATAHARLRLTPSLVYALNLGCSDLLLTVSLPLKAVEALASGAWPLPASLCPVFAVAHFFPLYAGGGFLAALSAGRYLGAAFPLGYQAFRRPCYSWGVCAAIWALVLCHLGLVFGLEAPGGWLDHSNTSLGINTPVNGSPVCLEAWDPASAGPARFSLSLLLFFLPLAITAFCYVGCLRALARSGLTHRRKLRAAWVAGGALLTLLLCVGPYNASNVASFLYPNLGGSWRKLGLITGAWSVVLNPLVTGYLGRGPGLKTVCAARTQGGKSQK

Turning to `Cc1cc(-c2ccnn2C)cc(C)c1-c1ccc(F)c2c1CC[C@H]2Nc1ccc([C@H]2C[C@@H]2C(=O)O)cn1` [Example 31], the EC50 (in general, the midpoint of the concentration-response curve) on human GPR40 receptor is 0.031 µM. Further, the IC50 (as a rule, the point on the concentration scale where inhibition reaches its midpoint) in series [1] is 27 µM; in series [3], 9 µM. In addition, the concentration in solution in series [2] (solubility at 24 h) was 93 µg/mL (≈ 187 µM). Further, the “Amount of degradation after 2 h” value in series [4] is listed as below 0.5%.
For `Cc1cc(OCC(C)(C)C#N)cc(C)c1-c1ccc(F)c2c1CC[C@H]2Nc1ccc([C@H]2C[C@@H]2C(=O)O)cn1` [Example 35], in that order: 0.023 µM, 34 µM, 18 µM, 59 µg/mL (≈ 115 µM) and below 0.5%.
Compound `Cc1cc(-c2ccn(C)c(=O)c2)cc(C)c1-c1ccc(F)c2c1CC[C@H]2Nc1ccc([C@H]2C[C@@H]2C(=O)O)cn1` [Example 36] registered an EC50 on human GPR40 receptor of 0.006 µM. Further, the IC50 is above 50 µM in series [1] and 10 µM in series [3]. Further, the concentration in solution in series [2] (solubility at 24 h) was 107 µg/mL (≈ 204 µM). In series [4], the “Amount of degradation after 2 h” value is given as below 0.5%.
For `Cc1cc(O)cc(C)c1-c1ccc(F)c2c1CC[C@H]2Nc1ccc([C@H]2C[C@@H]2C(=O)O)cn1` [Example 41], in that order: 0.033 µM, above 50 µM, 34 µM, 103 µg/mL (≈ 238 µM) and below 1.5%.
For `N#CC1(c2ccccc2-c2ccc(F)c3c2CC[C@H]3Nc2ccc([C@H]3C[C@@H]3C(=O)O)cn2)CC1` [Example 46], in that order: 0.629 µM, 9 µM, 32 µM, 85 µg/mL (≈ 187 µM) and below 0.5%.
`CC(C)c1ccccc1-c1ccc(F)c2c1CC[C@H]2Nc1ccc([C@H]2C[C@@H]2C(=O)O)cn1` [Example 47]: a half-maximal effect at human GPR40 receptor (EC50) was put at 0.026 µM. Further, the IC50 in series [1] was found to be 14 µM; in series [3] it was 12 µM. Moreover, in series [2], the solubility (usually the concentration that dissolves in the medium under given conditions) at 24 h came out at 72 µg/mL (≈ 167 µM). Further, the “Amount of degradation after 2 h” value in series [4] is reported as below 0.5%.
For `O=C(O)[C@H]1C[C@@H]1c1ccc(N[C@@H]2CCc3c(-c4c(Cl)cccc4Cl)ccc(F)c32)nc1` [Example 50], in that order: 0.013 µM, 22 µM, 21 µM, 69 µg/mL (≈ 151 µM) and below 1.0%.
For `COc1cc(F)c(-c2ccc(F)c3c2CC[C@H]3Nc2ccc([C@H]3C[C@@H]3C(=O)O)cn2)c(F)c1` [Example 56], in that order: 0.151 µM, 28 µM, 33 µM, 73 µg/mL (≈ 161 µM) and below 0.5%.
For `Nc1cc(F)c(-c2ccc(F)c3c2CC[C@H]3Nc2ccc([C@H]3C[C@@H]3C(=O)O)cn2)c(F)c1` [Example 58], in that order: 0.462 µM, above 50 µM, above 50 µM, 107 µg/mL (≈ 243 µM) and below 0.5%.
Consider `Cc1cc(OCC2(O)CCOCC2)cc(C)c1-c1ccc(F)c2c1CC[C@H]2Nc1ccc([C@H]2C[C@@H]2C(=O)O)cn1` [Example 63], for which the midpoint of the response on human GPR40 receptor, the EC50, lay at 0.02 µM. Also, the IC50 in series [1] and in series [3] was above 50 µM each time. In series [2], this compound returned a solubility at 24 h of 118 µg/mL (≈ 216 µM). Also, the “Amount of degradation after 2 h” value in series [4] is reported as below 0.5%.
`CNC(=O)c1cc(C)c(-c2ccc(F)c3c2CC[C@H]3Nc2ccc([C@H]3C[C@@H]3C(=O)O)cn2)c(C)c1` [Example 66] showed an EC50 on human GPR40 receptor of 0.039 µM. The IC50 in series [1] and in series [3] was above 50 µM each time. Besides, the solubility at 24 h in series [2] was determined as 115 µg/mL (≈ 243 µM). Further, the “Amount of degradation after 2 h” value in series [4] is below 1.0%.
At human GPR40 receptor, `COc1cc(-c2cc(C)c(-c3ccc(F)c4c3CC[C@H]4Nc3ccc([C@H]4C[C@@H]4C(=O)O)cn3)c(C)c2)ccn1` [Example 72] yielded an EC50 of 0.006 µM. In addition, the results for the IC50 in series [1] and in series [3] were 18 µM and 8 µM, respectively. Also, the solubility at 24 h in series [2] turned out to be 101 µg/mL (≈ 193 µM). Also, the “Amount of degradation after 2 h” value in series [4] is reported as below 0.5%.
For `O=C(O)[C@H]1C[C@@H]1c1ccc(N[C@@H]2CCc3c(-c4ccccc4C(F)(F)F)ccc(F)c32)nc1` [Example 74], in that order: 0.049 µM, 14 µM, 21 µM, 82 µg/mL (≈ 180 µM) and below 1.0%.
On human GPR40 receptor, `Cc1cc(C(=O)N(C)C)cc(C)c1-c1ccc(F)c2c1CC[C@H]2Nc1ccc([C@H]2C[C@@H]2C(=O)O)cn1` [Example 75] gave an EC50 of 0.186 µM. In addition, the IC50 in series [1] and in series [3] was above 50 µM in each case. Besides, the concentration in solution in series [2] (solubility at 24 h) came to 117 µg/mL (≈ 240 µM). Further, the “Amount of degradation after 2 h” value in series [4] is reported as below 0.5%.
